Where “and” joins values, the source holds several entries; their conditions need not be identical. Identical values can stand only once.
Tested on: procollagen-I synthesis in human dermal fibroblasts
Experiment: Dot blot assay for procollagen-I protein in dermal fibroblast conditioned medium
Format: cell-based
Settings: 24 hours, primary human foreskin fibroblasts, relative to vehicle treated control value of 100
Description: Primary human foreskin fibroblasts at passage 2 (P2) were seeded into 12-well plates at 10000 cells/cm^2 and maintained for 24 hours in an atmosphere of 5% carbon dioxide and 4% oxygen in Dulbeccos Modified Eagles Medium (DMEM) supplemented with 10% foetal calf serum. After this time the cells were washed with serum free DMEM and then incubated in fresh serum free DMEM for a further 60 hours. The fibroblast monolayers were then washed again with serum free DMEM. Test reagents and vehicle controls were added to the cells in triplicate in a final volume of 0.4 ml/well fresh serum free DMEM and incubated for a further 24 hours.
This fibroblast conditioned medium was either analysed immediately or snap frozen in liquid nitrogen and stored at −70° C. for future analysis. The cells were then counted and data from the dot-blot analysis subsequently standardised to cell number.
Samples of conditioned medium from dermal fibroblasts treated with vehicle (as a control) or test reagents were supplemented with 20 mM dithiothreitol (1:10 dilution of 200 mM stock solution) and 0.1% sodium dodecylsulphate (1:100 dilution of 10% stock solution), mixed well and then incubated at 75° C. for 2 minutes.
A standard for the assay was generated by serial dilution of neat fibroblast conditioned medium from fibroblasts seeded at 10000 cells/cm^2 in a 175 cm^2 flask and maintained in serum free DMEM as described above. Assay samples were subsequently applied in triplicate to a prewetted sheet of Immobilon-P transfer membrane using the 96-well Bio-Dot Apparatus from Bio-Rad as described in the manufacturers guidelines. Approximately 200 μl of medium was applied per well. The medium was allowed to filter through the membrane under gravity (30 minutes) after which the membrane was washed twice with PBS (200 μl). These PBS washes were allowed to filter through the membrane under gravity (2×15 minutes).
The Bio-Dot apparatus was then attached to a vacuum manifold and a third and final PBS wash carried out under suction. The apparatus was disassembled, the membrane removed and quickly cut as required before being placed in blocking buffer overnight at 4° C. Membranes prepared for procollagen-I analysis were blocked with 5% (w/v) non-fat dried milk powder/0.05% Tween 20 in PBS. The following day, the membranes were probed with 1:10000 dilution of primary antibodies to human procollagen-I (MAB1912; rat monoclonal; Chemicon Int. Inc., Temecula, Calif.) for 2 hours at room temperature. The membranes were subsequently washed with TBS/0.05% Tween 20 (3×5 minutes) and then incubated with 1:1000 dilution of ^125I-conjugated anti-rat fragments (Amersham) as required for 1 hour at room temperature. Following this the Immobilon strips were again washed with TBS/Tween 20 (3×5 minutes) before being allowed to dry in air at room temperature.
The dried membranes were wrapped in cellophane and exposed to a Molecular Dynamics storage phosphor screen for 16-18 hours. […] Dot intensity was assessed by computer-assisted image analysis using the quantification tools in ImageQuant™, standardised to cell number and the effects of various test reagents procollagen-I synthesis were determined relative to a vehicle treated control value of 100 arbitrary units.
In order to normalise the results the effects of the test substances were determined relative to a vehicle treated control value of 100 arbitrary units. […]

Row | SMILES | Procollagen-I (1 μM) [arbitrary units] | Procollagen-I (10 μM)
1 | CCCCC/C=C\C/C=C\CCCCCCCC(=O)O [linoleic acid] | 99.3 | 111.8 arbitrary units and 110.3 arbitrary units
2 | CCCCCCCC/C=C\CCCCCCCC(=O)O [oleic acid, reference compound] |  | 102.6 arbitrary units
3 | CCCCCCCCCCC/C=C\CCCCC(=O)O [PA, Petroselinic acid] | 87.6 | 
4 | CC/C=C\C/C=C\C/C=C\C/C=C\C/C=C\C/C=C\CCC(=O)O [DHA, Docosahexaenoic acid] |  | 105.1 arbitrary units
